The target of the assay is T1, Human neutrophil elastase (Homo sapiens, UniProt P08246).
T1 construct: purchased Calbiochem 324681
T1 sequence (P08246 30-267): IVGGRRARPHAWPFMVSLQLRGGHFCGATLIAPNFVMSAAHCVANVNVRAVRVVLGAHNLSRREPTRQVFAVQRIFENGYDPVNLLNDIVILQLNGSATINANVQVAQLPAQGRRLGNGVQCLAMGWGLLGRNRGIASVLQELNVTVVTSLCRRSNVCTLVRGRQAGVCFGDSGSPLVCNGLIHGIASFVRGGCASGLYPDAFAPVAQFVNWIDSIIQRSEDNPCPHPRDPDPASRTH
As to the kind of experiment: Human Neutrophil Elastase Assay. It counts as biochemical. The note with it: substrate MeOSuc-Ala-Ala-Pro-Val-AMC 250 μM, pH 7.5, fluorescence. The method, then: Human Neutrophil Elastase Assay
Materials: Human neutrophil elastase was purchased from Calbiochem (Cat. No.: 324681) and the elastase substrate MeOSuc-Ala-Ala-Pro-Val-AMC from Bachem (Cat. No.: 1-1270). All other materials were of the highest grade commercially available. The following buffers were used: Compound buffer: 100 mM Tris, 500 mM NaCl, adjusted to pH 7.5; Assay buffer: 100 mM Tris, 500 mM NaCl, adjusted to pH 7.5, containing 0.01% BSA. Assay conditions: Test compounds were prediluted in DMSO and subsequently in compound buffer (5% DMSO final). 5 μL of these compound dilutions were mixed with 10 μl Neutrophil elastase (9 ng/ml in assay buffer) in a black 384 well OptiPlate (Perkin Elmer, Cat No.: 6007270) and incubated for 15 min at room temperature. Subsequently 10 μL substrate solution in assay buffer were added (250 μM final concentration) and the plates were incubated for 60 min at room temperature. After inactivation of the enzyme, fluorescence intensities were measured at 380 nm excitation and 460 nm emission wavelengths. Each plate contains wells with a high value control (DMSO+enzyme+substrate) and wells with a low value control (DMSO+inactivated enzyme+substrate). IC50 values were estimated using a sigmoidal concentration response curve with variable slope. Means of low values were taken as 0%, means of high values as 100%.

Turning to `Cc1c(-c2ccnn2-c2ccc(C#N)cc2)nc(C(=O)NCc2ccc(S(C)(=O)=NC#N)cc2)c(=O)n1-c1cccc(C(F)(F)F)c1` (single isomer, unassigned) [Example 17, N-[[4-(N-Cyano-S-methyl-sulfonimidoyl)phenyl]methyl]-6-[2-(4-cyanophenyl)pyrazol-3-yl]-5-methyl-3-oxo-4-[3-(trifluoromethyl)phenyl]pyrazine-2-carboxamide], the half-maximal inhibitory concentration (IC50) was under 1 nM.
